Measured values as given in PMC8205225, “Structural Basis of Metallo-β-lactamase Inhibition by N-Sulfamoylpyrrole-2-carboxylates” (ACS Infectious Diseases, 2021).
Like-named read-outs stand apart in the source and are kept apart here.

Legend:
[1] = molecular target: T1, IMP-1 (Serratia marcescens, UniProt P52699); assay: fluorogenic cephalosporin FC5 MBL inhibition assay, IMP-1; format: biochemical; details: FC5 5 μM, enzyme 20 pM, quadruplicate; read-out: pIC50 IMP-1 (converted)
T1 construct: made in house
Procedure: (§1) The NSPCs were screened against four of the currently most clinically relevant B1 MBLs, i.e. VIM-1, VIM-2, NDM-1, and IMP-1 (Table 1), using an assay employing the “fluorogenic” cephalosporin FC5.[40]
(§2) The inhibitory activity of NSPCs 6, 8-14 against representative B1 subfamily MBLs [obtained according to previously reported production and purification procedures: VIM-1,5 VIM-2, NDM-1 and IMP-16] was determined using a fluorogenic assay monitoring the enzymatic breakdown of the cephalosporin probe FC5.6 The FC5/meropenem assays were conducted at room temperature in clear-bottomed Greiner 384 black well microplates (FC5) or Greiner 96 well UV star microplates (meropenem), using a ClarioStar or PHERAstar FS microplate reader (BMG LabTech). Representative β-lactamases were tested at the following concentrations:
(§3) VIM-1, 100 pM; NDM-1, 20 pM; IMP-1, 20 pM; and VIM-2, 500 pM. The concentration of FC5 employed was 5 μM for all enzymes. IMP-1, VIM-1, VIM-2 and NDM-1 inhibition assays were screened in “MBL buffer” (50 mM HEPES, pH 7.2, 1 μM ZnSO4, 1 μg mL−1 BSA, 0.01% v/v Triton X-100). The initial rates of reaction (measured after 10 min pre-incubation of the NSPC with the enzyme) were assessed by monitoring the fluorescence intensity at λex = 380 nm and λem = 460 nm. Following the determination of initial rates of reaction, the data were fitted using a four-parameter function: log (inhibitor) vs. response, variable slope in GraphPad Prism 6 to obtain IC50 values.6, 7

[2] = molecular target: T2, NDM-1 (Klebsiella pneumoniae, UniProt C7C422); assay: fluorogenic cephalosporin FC5 MBL inhibition assay, NDM-1; format: biochemical; details: for IC50: FC5 5 μM, enzyme 20 pM, quadruplicate, read-out: pIC50 NDM-1 (converted); for activity (IC50) for inhibition of NDM-1, in words: FC5 assay
T2 construct: made in house
Procedure: as §1, §2, §3

[3] = molecular target: T3, VIM-1 (Pseudomonas aeruginosa, UniProt A0A0F7KYQ8); assay: fluorogenic cephalosporin FC5 MBL inhibition assay, VIM-1; format: biochemical; details: FC5 5 μM, enzyme 100 pM, quadruplicate; for IC50: read-out: pIC50 VIM-1 (converted)
T3 construct: made in house
Procedure: as §1, §2, §3

[4] = molecular target: T4, VIM-2 (Escherichia coli, UniProt Q5U7L7); assay: fluorogenic cephalosporin FC5 MBL inhibition assay, VIM-2; format: biochemical; details: FC5 5 μM, enzyme 500 pM, quadruplicate; read-out: pIC50 VIM-2 (converted)
T4 construct: made in house
Procedure: as §1, §2, §3

[5] = molecular target: T4, VIM-2; details: determined using 100 μM nitrocefin; cited from earlier work
[6] = molecular target: T1, IMP-1; details: determined using 100 μM nitrocefin; cited from earlier work
[7] = molecular target: T2, NDM-1; details: determined using 100 μM nitrocefin; cited from earlier work
[8] = molecular target: T4, VIM-2; design: method as in PMID 32184250; details: determined by measuring hydrolysis of imipenem; cited from earlier work
[9] = molecular target: T1, IMP-1; design: method as in PMID 32184250; details: determined by measuring hydrolysis of imipenem; cited from earlier work
[10] = molecular target: T2, NDM-1; design: method as in PMID 32184250; details: determined by measuring hydrolysis of imipenem; cited from earlier work
[11] = test system: E. coli S117 blaNDM-1; design: method as in PMID 31454231; details: strain S117, VNRX at 10 μg mL^–1 (printed in the [I] 8 row); cited from earlier work
[12] = test system: K. pneumoniae IR43 blaNDM-1; design: method as in PMID 31454231; details: strain IR43, VNRX at 10 μg mL^–1 (printed in the [I] 8 row); cited from earlier work
[13] = molecular target: T1, IMP-1; details: cited from earlier work
[14] = molecular target: T3, VIM-1; details: cited from earlier work
[15] = molecular target: T4, VIM-2; details: cited from earlier work
[16] = test system: K. pneumoniae B68-1 blaNDM-1; design: method as in PMID 31454231; details: strain B68-1, VNRX at 10 μg mL^–1 (printed in the [I] 8 row); cited from earlier work
[17] = test system: E. coli IR57 blaNDM-1; design: method as in PMID 31454231; details: strain IR57, VNRX at 10 μg mL^–1 (printed in the [I] 8 row); cited from earlier work

T1 sequence (P52699 19-246, looked up, species assumed): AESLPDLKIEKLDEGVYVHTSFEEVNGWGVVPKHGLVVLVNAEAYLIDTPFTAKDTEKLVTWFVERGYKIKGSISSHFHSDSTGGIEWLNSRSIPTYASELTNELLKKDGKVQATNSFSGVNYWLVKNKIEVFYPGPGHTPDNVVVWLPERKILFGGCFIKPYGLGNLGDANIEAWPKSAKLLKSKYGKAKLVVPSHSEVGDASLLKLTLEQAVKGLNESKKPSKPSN
T2 sequence (C7C422 29-270, looked up, species assumed): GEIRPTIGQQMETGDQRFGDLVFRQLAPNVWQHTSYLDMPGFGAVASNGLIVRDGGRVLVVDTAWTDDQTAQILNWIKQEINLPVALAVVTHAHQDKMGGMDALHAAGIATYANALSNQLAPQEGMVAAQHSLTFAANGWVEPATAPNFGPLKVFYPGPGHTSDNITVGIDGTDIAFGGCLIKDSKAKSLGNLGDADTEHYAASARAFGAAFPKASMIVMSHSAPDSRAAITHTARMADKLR

SMILES | IC50 [1] [nM] | IC50 [2] [nM] | IC50 [3] [nM] | IC50 [4] [nM] | further results
NS(=O)(=O)n1ccc(-c2ccc(F)cc2)c1C(=O)O [6a, 3-(4-Fluorophenyl)-1-sulfamoyl-1H-pyrrole-2-carboxylic acid] | 0.631 | 7.94 | 126 | 20 | activity (IC50) for inhibition of NDM-1, in words [2]: nanomolar potency
NS(=O)(=O)n1ccc(-c2ccc(F)cc2)c1C(=O)[O-].[Na+] [6b] | 1.26 | 6.31 |  | 31.6 | activity (IC50) for inhibition of NDM-1, in words [2]: nanomolar potency; pIC50 VIM-1 [3]: 6.9
NS(=O)(=O)n1ccc(-c2ccc(C3CCNCC3)cc2)c1C(=O)O [AMRC276] |  |  |  |  | pIC50 VIM-2 [5]: 4.2[22]; pIC50 IMP-1 [6]: 7.4[22]; pIC50 NDM-1 [7]: 6.8[22]
NS(=O)(=O)n1ccc(-c2ccc(=O)[nH]c2)c1C(=O)O [AMRC364] |  |  |  |  | pIC50 VIM-2 [5]: 4.4[22]; pIC50 IMP-1 [6]: 5.7[22]; pIC50 NDM-1 [7]: 5.6[22]
CS(=O)(=O)c1ccc(-c2ccn(S(N)(=O)=O)c2C(=O)O)cc1 [AMRC439] |  |  |  |  | pIC50 VIM-2 [5]: 4.3[22]; pIC50 IMP-1 [6]: 6.3[22]; pIC50 NDM-1 [7]: 6.4[22]
CCc1c(C(=O)O)c(S(N)(=O)=O)c(CC)n1C [SPC] |  |  |  |  | pIC50 VIM-2 [8]: 7.7[21]; pIC50 IMP-1 [9]: 6.6[21]; pIC50 NDM-1 [10]: 6.0[21]
NC(=O)c1ccc(-c2ccn(S(N)(=O)=O)c2C(=O)O)cc1 [compound 8] | 2.51 | 12.6 | 79.4 | 158 | 
Nc1ccc(-c2ccn(S(N)(=O)=O)c2C(=O)[O-])cn1.[Na+] [compound 9] | 1 | 12.6 | 316 | 200 | pIC50 VIM-2 [5]: 4.5[22]; pIC50 IMP-1 [6]: 6.4[22]; pIC50 NDM-1 [7]: 6.1[22]
NS(=O)(=O)n1ccc(-c2cn[nH]c2)c1C(=O)O [compound 10] | 1.26 | 7.94 | 79.4 | 15.8 | activity (IC50) for inhibition of NDM-1, in words [2]: nanomolar potency
Nc1ncc(-c2ccn(S(N)(=O)=O)c2C(=O)O)cn1 [compound 11] | 6.31 | 12.6 | 39.8 | 50.1 | 
N=C1NCC(c2ccn(S(N)(=O)=O)c2C(=O)O)CN1 (centres unmarked) [compound 12] | 50.1 | 316 | 3.16 | 12.6 | 
NS(=O)(=O)n1ccc(-c2ccc(N3CCOCC3)cc2)c1C(=O)O [compound 13] | < 0.631 | 1.58 | 251 | 158 | activity (IC50) for inhibition of NDM-1, in words [2]: nanomolar potency
Nc1nc2ccc(-c3ccn(S(N)(=O)=O)c3C(=O)O)cn2n1 [compound 14, 3-(2-Amino-[1,2,4]triazolo[1,5-a]pyridin-6-yl)-1-sulfamoyl-1H-pyrrole-2-carboxylic acid] | 5.01 | 12.6 | 39.8 | 6.31 | 
NCCN[C@H]1CC[C@H](CC(=O)N[C@H]2Cc3cccc(C(=O)O)c3OB2O)CC1 [taniborbactam] |  |  |  |  | MIC of MEM in combination with VNRX [11]: 1 μg mL^–1; MIC of MEM in combination with VNRX [12]: 0.25 μg mL^–1; pIC50 IMP-1 [13]: 5.6[41]; pIC50 VIM-1 [14]: 8.1[41]; pIC50 VIM-2 [15]: 8.3[41]; MIC of MEM in combination with VNRX [16]: 0.5 μg mL^–1; MIC of MEM in combination with VNRX [17]: 0.5 μg mL^–1
